Measured values published in PMC9606171, “Synthetic PPAR Agonist DTMB Alleviates Alzheimer’s Disease Pathology by Inhibition of Chronic Microglial Inflammation in 5xFAD Mice” (Neurotherapeutics, 2022).
Where two headings read alike, the source gives them in different places.

Assays:
[1] = biological target: T1, PPARγ (Homo sapiens, UniProt P37231); test: Gal4-transactivation luciferase assay in HEK293A cells, PPARγ LBD; assay type: cell-based
T1 construct: pcDNA5-GAL4-PPAR LBD, pG5-luc, and Rluc vector (as control) were transfected into HEK293A cells; expressed in transfected cells; host or cells: HEK293A
T1 sequence (P37231 238-503 limits assumed): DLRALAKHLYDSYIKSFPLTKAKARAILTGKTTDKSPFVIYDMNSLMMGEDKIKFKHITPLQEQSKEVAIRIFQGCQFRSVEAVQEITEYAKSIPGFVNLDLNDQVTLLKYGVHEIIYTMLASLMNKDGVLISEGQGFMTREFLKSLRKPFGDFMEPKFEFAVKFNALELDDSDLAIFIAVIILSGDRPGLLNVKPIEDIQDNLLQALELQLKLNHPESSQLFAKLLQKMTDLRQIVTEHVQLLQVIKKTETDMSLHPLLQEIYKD
Experimental: HEK293A cells were transfected with the GAL4-reporter plasmids and pGL4.74 (Promega, Madison, WI, USA) as an internal standard through electroporation using a Neon Transfection System (Invitrogen, Carlsbad, CA, USA). All vector materials were provided by Professor Yuichiro Kanno at Toho University. Cells were treated with DTMB and each positive control compound for 24 h after overnight incubation. Cells were then harvested and resuspended in luciferase lysis buffer (Promega), followed by incubation on ice for 10 min. Cell debris was removed by centrifugation at 20,000 × g at 4 °C for 10 min, and the supernatants were used for luciferase assay. Using a dual-luciferase reporter assay system (Promega), luciferase activities were measured according to the manufacturer’s instructions. Experimental firefly luciferase activities were normalized against those of Renilla luciferase.

[2] = Pharmacokinetics and brain distribution after oral administration; assay type: in vivo, C57BL/6 mice; details: male, C57BL/6, mouse, mice; for Kp: brain / plasma, po, 50 mg/kg
Experimental: To investigate the pharmacokinetics and brain distribution of DTMB, fifty-six male C57BL/6 mice (22–26 g) were fasted with water ad libitum for 16 h before oral administration of DTMB and randomly divided into seven groups (n=8 per each sampling time point). Mice were administered with a DTMB suspension in 1% carboxymethylcellulose at a dose of 50 mg/kg via oral gavage, and blood samples (approximately 0.1 mL) were collected at 0, 0.16, 0.5, 1, 4, 8, and 24 h via the abdominal artery. Subsequently, whole brain tissues were isolated, weighed, and homogenized with two volume of ice-cold 80% methanol solution using a tissue grinder. Blood samples were centrifuged at 12,000 g for 1 min to separate plasma. Aliquots of plasma (30 µL) and brain homogenate (50 µL) samples were stored at − 80 °C until analysis. Concentrations of DTMB in plasma and brain homogenate samples were analyzed using an Agilent 6470 triple quadrupole liquid chromatography-mass spectrometry (LC–MS/MS) system (Agilent, Wilmington, DE, USA). Aliquots of plasma (30 µL each) and brain homogenate (50 µL each) were added to 100 μL of internal standard solution (IS; berberin 0.1 ng/mL in methanol) and vigorously mixed for 5 min. After centrifugation at 16,000 g for 10 min, a 5 µL aliquot of the supernatant was injected into the LC–MS/MS system. DTMB was separated on a Synergi Polar RP column (2.0 × 150 mm, 4 μm particle size; Phenomenex, Torrence, CA, USA) using an isocratic mobile phase consisting of 10 mM ammonium formate buffer (10%) and methanol (90%) containing 0.1% formic acid at a flow rate of 0.25 mL/min. Quantification of the analyte peaks was carried out at m/z 513.2 → 283.0 for DTMB (TR (retention time) 4.7 min) and m/z 336.1 → 320.0 for berberine (TR 2.9 min) in a […] ionization mode with optimized fragmentor of 135 V and collision energy of 25 or 30 eV, respectively. The pharmacokinetic parameters of DTMB in the plasma and brain were determined by the non-compartmental analysis (WinNonlin® 5.1; Pharsight, Mountain View, CA, USA). Elimination half-life (T1/2) was calculated from the elimination coefficient (K) of DTMB concentrations. Cmax indicated the maximum plasma concentrations and Tmax indicated time to reach Cmax. AUClast and AUCinf were calculated from the area under plasma concentrations curve from zero to the last time point and to infinity, respectively.

[3] = system: primary microglia; test: Quantitative PCR of NF-κB target genes in primary microglia; assay type: cell-based, mice
Experimental: Primary microglia culture was conducted as described in a previous study. Mice at postnatal day 3 mice were used for the preparation of primary microglia. Newborn mice pups were anesthetized in ice and then sacrificed. Isolated cortex and hippocampus were collected after removing the meninges. Brain tissues were dissociated by incubating in HBSS (Gibco, Gaithersburg, MD, USA) with trypsin (2.5%) for 15 min. Cell homogenates were then incubated in M-CSF (20 ng/mL, R&D Systems) supplemented with DMEM-F12 medium with 10% fetal bovine serum, 10% horse serum, 1% GlutaMAX (Gibco, MD, USA), and 1% penicillin/streptomycin (Welgene, Korea). After 10 days, microglia were purified through shaking at 260 rpm for 2 h.
Total RNA was isolated using TRI Reagent (Molecular Research Center, Cincinnati, OH, USA). RNA was reverse transcribed using the ImProm-II™ Reverse Transcription System (Promega) according to the manufacturer’s instructions. For detection and quantification, a StepOnePlus Real-Time PCR System (Applied Biosystems, Foster City, CA, USA) was used with FastStart Universal SYBR Green Master (Roche, Basel, Switzerland). Real-time qPCR data were analyzed using the comparative CT method. Sample sizes were 10–15 mice per group.

[4] = system: 5xFAD mice; test: Bulk RNA-seq of hippocampus and cortex; assay type: in vivo
Experimental: DTMB was synthesized from Daejung Chemicals (Korea) and was dissolved in dimethyl sulfoxide (Sigma Aldrich, St. Louis, MO, USA) for cell-based experiments. To evaluate the effects of DTMB on 5xFAD mice, DTMB (10 mg/kg) and vehicle (1% carboxymethylcellulose and 10% DMSO) were orally administrated to four groups (wild-type, wild-type + DTMB, 5xFAD, and 5xFAD + DTMB) with a 6 day per week for 3 months.
RNA-seq libraries were prepared using the NEBNext® Ultra II Directional RNA Library Prep Kit for Illumina (BioLabs, MA, USA) and sequenced on Illumina HiSeq 2500 (San Diego, CA, USA). RNA-seq reads with adapter sequence were trimmed using cutadapt and aligned to the Mouse Ensemble Archive Release 100 by STAR [26]. Gene expression levels were quantified by RSEM [27]. Differential expression analysis was performed by DESeq2 [28], and functional enrichment of Gene ontology (GO) terms and pathways was estimated by Metascape. Pathway enrichment was estimated by GSEA [30] with the following options: “-metric log2_Ratio_of_Classes -permute gene_set.”

relative luciferase activity ([1]; HEK293A, 24 h, various concentrations): increased luciferase activity
PPARγ transactivation (luciferase reporter activity) compared to positive control ([1]; versus positive control): lower than the positive controls
Kp ([2]; oral, plasma concentration range 0.63–66.9 ng/mL, read-out: mean brain DTMB concentration ratio over the plasma DTMB ([Brain]/[Plasma])): 2.69
Kp ([2]; printed in the Brain column, 50 mg/kg oral, read-out: AUC ratio): 3.53
Tmax ([2]; Brain, 50 mg/kg oral): 0.94 ± 0.18 h
half-life ([2]; Brain, 50 mg/kg oral): 4.41 ± 1.11 h
Tmax ([2]; Plasma, 50 mg/kg oral): 0.75 ± 0.27 h
half-life ([2]; Plasma, 50 mg/kg oral): 1.64 ± 0.27 h
Compound: COc1ccc(-c2cc(=O)oc3c(C)c(OC(=O)[C@H](Cc4c[nH]c5ccccc45)NC(=O)OC(C)(C)C)ccc23)cc1 [DTMB]
mRNA levels of NFκB [3]: no change
expression of NF-κB target genes Il-6, Il-1β, and Inos ([3]; primary microglia, mRNA): decreased
expression of anti-inflammatory marker (Arg-1) ([3]; primary microglia, mRNA): induced
gene expression level of Ece1 ([4]; hippocampus): significantly increased
expression of neprilysin ([4]; hippocampus and cortex, not statistically significant (p-value is 0.27)): increased
